Key:
[1] = Acute toxicity test, gavage to mice; type: in vivo, Kunming strain mice; details: male mice; for Body weight before administration (mean ± standard deviation): baseline before gavage 2000 mg/kg once a day; for Body weight on Day 7 (mean ± standard deviation) / Body weight on Day 14 (mean ± standard deviation): gavage 2000 mg/kg once a day
Method: CMC-Na (sodium carboxymethylcellulose) was purchased from Shanghai Sinopharm Chemical Reagent Co., Ltd.
The test animals were Kunming strain mice, 18-20 g, provided by Beijing Keao Xieli Feed Co., Ltd.
• 1) Preparation of 0.7% CMC-Na: 0.7 g CMC-Na was added with distilled water to prepare a 0.7 g/100 mL solution. • 2) The compound to be tested was added to 0.7% CMC-Na to prepare a 100 mg/mL suspension. • 3) Each test group comprised 10 mice, all of which were male. Each mouse was orally administered with the test compound (2000 mg/kg) by gavage, once a day, for a cumulative period of 15 days. […] The body weights were recorded on the day of administration, days 7 and 14. 2.3. Test results

[2] = tested on: sodium nitrite-induced hypoxic memory impairment model; assay: Jumping stand test, sodium nitrite-induced hypoxic memory impairment model; type: in vivo, ICR mice; details: sodium nitrite 120 mg/kg s.c., compound 200 mg/kg gavage once a day 3 weeks; for Number of errors: model group 1.4 ± 0.7; for Latency period: model group 93.8 ± 90.25
Method: (§1) The mice employed in the present test were purchased from Xipuer-BIKAI Laboratory Animal Co., Ltd., and they were SPF grade ICR mice, 3-4 weeks old, weighing 16-18 g.
Sodium nitrite (NaNO2) was purchased from Sinopharm Chemical Reagent Co., Ltd.; Product No.: 10020018; Specification: analytical grade.
(§2) Test article preparation: 100 mg of the compound to be tested was weighed and added to 10 mL of 0.7% CMC-Na to prepare a 10 mg/mL suspension for use.
(§3) The laboratory mice were randomly divided into groups (9 or 10 mice per group). The mice in each group were administrated at a dosage of 0.2 mL/10 g body weight by oral gavage once a day for three weeks.
(§4) The laboratory animals were administered by gavage for 3 consecutive weeks according to the above administration dosage/specification. Training was started on the last day of administration, and the test was conducted 24 hours later.
The laboratory animals were administered by gavage for three weeks. One hour after the last administration, the animals were trained with YLS-3 TB jumping stand detector. After the training, sodium nitrite (mouse: 120 mg/kg) was injected subcutaneously (in the neck) immediately. The jumping stand test was conducted 24 hours later. The latency period (the time from the start of counting to the first time of jumping off the stand) and the number of errors (the number of electric shock) were recorded.
(§5) The YLS-3 TB jumping stand detector were divided into five compartments by transparent boards. The bottom of the compartment was covered with a copper grid and applied with a voltage of 50 V A rubber pad stand with a height of 3.5 cm and a diameter of 3.5 cm was placed in each compartment to serve as a safe area for mice to avoid electric shock. Training of laboratory mice before the formal test: the laboratory mice were placed in the small compartment with a stand to get familiar with the environment for 5 min (the five compartments were connected), and then electrified for stimulation (all the laboratory mice were on the grid at this time), at the voltage of 50 V and current of 1.00 mA. Mice have the habit of jumping from a high place. If they jump, they will be shocked to produce memory. The current was applied for 5 min, which served as the training process.
(§6) Testing: the animals were put on the stand in the jumping compartment one by one. The time interval for putting each animal was 5 s. After the first animal was put on the stand, the electricity was applied immediately. The electricity was applied for 6 min. At the end of applying electricity, data were printed, and the latency period (the time from the start of counting to the first time of jumping off the stand) and the number of errors (the number of electric shock during the testing period) were recorded. Due to the different time of putting the animal in, the time difference can be subtracted according to the actual time of putting the animal.

[3] = tested on: Aβ40; assay: Aβ40 content in culture supernatant of HEK293APP/sw overexpressing cells (ELISA kit); type: cell-based; details: compound 400 μM, 24 hours, adjusted by total protein concentration, blank control 127.81
Method: (§7) BCA Protein Assay Kit was purchased from Beyotime, Aβ40 and Aβ42 detection kits were purchased from Wako, and cell culture related reagents were purchased from Gibco.
(§8) HEK293APP/sw overexpressing cells were cultured in DMEM medium containing 10% FBS, 100 μg/mL G418 (Geneticin) and 1×Penicillin-Streptomycin in 48-well plates. A 4 mM compound stock solution (prepared by dissolving the compound in DMEM culture medium) was filtered through a 0.22 μm sterile filter and stored at −20° C. for subsequent use. At 70% cell density, 40 μL of the compound test solution was added to each well to reach a final concentration of 400 μM, and the plate was incubated for 24 hours.
(§9) The supernatant of the culture medium was collected. The BCA reagent was added to a part of the supernatant, after incubating at room temperature for 30 min, the absorbance value (i.e., OD value) of each well was determined by a microplate reader at 570 nm. The total protein concentration was calculated according to a protein standard curve. Meanwhile, the other part of the supernatant (100 μL) was added to a coated 96-well plate and incubated overnight at 4° C., after the solution was removed and the reagents were washed, HRP (horseradish peroxidase)-labeled antibody was added and incubated at 4° C. for 2 hours. After the reagents were removed and washed, a TMB chromogenic solution was added, the plate was incubated at room temperature for 30 min, and then a stop solution was added to stop the reaction. The absorbance value (i.e., OD value) of each well was measured by a microplate reader at 450 nm. The concentrations of Aβ40 and Aβ42 were calculated according to the standard curves of Aβ40 and Aβ42, respectively. In the end, the concentrations of Aβ40 and Aβ42 were adjusted by the total protein concentration, so as to obtain the final concentration.

[4] = tested on: scopolamine-induced acute memory dysfunction model; assay: Jumping stand test, scopolamine-induced acute memory dysfunction model; type: in vivo, ICR mice; details: scopolamine 2 mg/kg i.p., compound 200 mg/kg gavage once a day 3 weeks; for Number of errors: model group 1.7 ± 0.5; for Latency period: model group 68.5 ± 80.0
Method: as §1
Scopolamine hydrobromide trihydrate was purchased from aladdin, Product No.: S107418; Purity: 98%.
as §2, §3, §4
The laboratory animals were administered by gavage for 3 weeks, and scopolamine (mouse: 2 mg/kg) was injected intraperitoneally 0.5 hour after the last dose. The animals were trained with YLS-3 TB jumping stand detector and tested for memory acquisition function after 24 hours. The latency period (the time from the start of counting to the first time of jumping off the stand) and the number of errors (the number of electric shock) were recorded.
as §5
as §6, with “Due to the different time of putting the animal in, the time difference can be subtracted according to the actual time of putting the animal.” left out

[5] = tested on: Aβ42; assay: Aβ42 content in culture supernatant of HEK293APP/sw overexpressing cells (ELISA kit); type: cell-based; details: compound 400 μM, 24 hours, adjusted by total protein concentration, blank control 11.08
Method: as §7, §8, §9

## CCCC(CCC)C(=O)S/C(CCOP(=O)(O)O)=C(/C)N(C=O)Cc1cnc(C)nc1N [Compound 1, (Z)—S-(2-(N-((4-amino-2-methylpyrimidin-5-yl)methyl)formamido)-5-(phosphonooxy)pent-2-en-3-yl) 2-propylpentanethioate]
[1]
  Body weight before administration (mean ± standard deviation): 31.4 ± 1.1 g
  Body weight on Day 7 (mean ± standard deviation): 35.5 ± 1.0 g
  Body weight on Day 14 (mean ± standard deviation): 36.7 ± 1.2 g
[2]
  Number of errors: 0.4 ± 0.7
  Latency period: 228.8 ± 155.9 s
[3]
  The content of Aβ40: 41.18 pmol/L
[4]
  Number of errors: 0.8 ± 0.8
  Latency period: 180.0 ± 105.9 s
[5]
  The content of Aβ42: 3.32 pmol/L

## CCC(CC)C(=O)S/C(CCOP(=O)(O)O)=C(/C)N(C=O)Cc1cnc(C)nc1N [Compound 2, (Z)—S-(2-(N-((4-amino-2-methylpyrimidin-5-yl)methyl)formamido)-5-(phosphonooxy)pent-2-en-3-yl) 2-ethylbutanethioate]
[2]
  Number of errors: 0.6 ± 0.8
  Latency period: 210.4 ± 117.3 s
[3]
  The content of Aβ40: 37.39 pmol/L
[4]
  Number of errors: 0.9 ± 0.7
  Latency period: 173.2 ± 98.7 s
[5]
  The content of Aβ42: 3.34 pmol/L

## C/C(=C(\CCOP(=O)(O)O)SC(=O)c1ccco1)N(C=O)Cc1cnc(C)nc1N [Compound 9, (Z)—S-(2-(N-((4-amino-2-methylpyrimidin-5-yl)methyl)formamido)-5-(phosphonooxy)pent-2-en-3-yl) furan-2-carbothioate]
[1]
  Body weight before administration (mean ± standard deviation): 32.1 ± 1.7 g
  Body weight on Day 7 (mean ± standard deviation): 35.7 ± 1.4 g
  Body weight on Day 14 (mean ± standard deviation): 36.3 ± 1.7 g
[2]
  Number of errors: 0.6 ± 0.7
  Latency period: 209.3 ± 110.4 s
[3]
  The content of Aβ40: 42.88 pmol/L
[5]
  The content of Aβ42: 2.94 pmol/L
